The source of these data is patent publication US8802634B2, “CD40-L Inhibitory Peptides” (Phylogica Limited, priority 2008, dated 2014).

One experiment concerns the target T1, CD40L/CD40-Fc (Homo sapiens, UniProt P29965).
T1 sequence (P29965 113-261 limits assumed): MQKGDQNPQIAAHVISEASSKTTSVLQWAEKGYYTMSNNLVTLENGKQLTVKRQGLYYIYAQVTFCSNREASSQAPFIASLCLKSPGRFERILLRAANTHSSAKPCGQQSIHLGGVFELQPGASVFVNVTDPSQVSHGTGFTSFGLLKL
Description: Chemiluminescent proximity assay (Alphascreen) of CD40L-CD40 interaction. In kind it is binding. As to conditions: for EC50: monomeric and dimeric peptides, Table 5, read-out: EC50; for inhibition of CD40L-CD40 interaction relative to monomeric peptide controls: qualitative. The protocol: In one example, the Alphascreen assay (PerkinElmer) was employed according to the manufacturer's instructions.
Homodimers and heterodimers were also assayed by chemiluminescent proximity assay for their ability to inhibit CD40L-CD40 interaction.
(Alpha assays give light when donor and acceptor beads are brought close together.)

Experiment [1] addresses CD40L-induced CD86 expression on primary B-cells (Homo sapiens, UniProt P29965). In words: Inhibition of CD40L-induced CD86 expression on primary B-cells (FACS). In kind it is cell-based. As to conditions: for EC50: monomeric and dimeric peptides, Table 7, read-out: EC50; for inhibition of CD40L-induced CD86 expression (qualitative): figure legends. The protocol:
In one example, the ability of a peptide, analog or derivative of the invention to inhibit or reduce or delay expression of CD86 on primary B-cells was determined in the presence and absence of the peptides, analogs and derivatives of the invention. In particular, CD86 expression was determined by FACS.
(§1) In these assays, CD40L induced CD86 expression in a concentration-dependent manner in the absence of a peptidyl inhibitor of the present invention with an EC50 value of about 9 nM (FIG. 6d, 6e). As a control in these assays, LPS-induced expression of CD86 mediated by the Toll-like receptors TLR 2/4, and TNFα-induced cytoxicity, were also assayed to exclude effects mediated by ligands other than CD40L.
In a similar series of bioassays, dimeric forms of the CD40L peptide inhibitors were also tested for their ability to inhibit or reduce CD40L-induced expression of CD86 on primary B-cells.

For a further experiment, the system named is TNFα. In words: TNFα-induced cytotoxicity (control). Type of experiment: cell-based. As to conditions: specificity control. The protocol: as §1
The subject of experiment [2] is T cells from transgenic D011.10 mice. In words: Antigen-specific T-cell proliferation assay. Type of experiment: cell-based. As to conditions: 10 μM or 20 μM peptide. The procedure: Briefly, pooled DLN (consisting parathymic and posterior mediastinal nodes) were collected from transgenic D011.10 mice engineered to express ovalbumin-specific T cell receptors (TCRs). Enriched T-cell suspensions were prepared and stimulated with 10 μg/ml ovalbumin in the presence or absence of 10 μM or 20 μM concentration of anti-CD40L peptidyl inhibitors. The peptides tested were PEGylated serine derivatives and/or chiral analogs of peptides CD40L M1—6, CD40L M1—9, CD40L M1—18, CD40L M1—30, CD40L M1—42, CD40L M1—50, CD40L M7—82 and CD40L M7—206. Cells were cultured for 24-72 hrs and then pulsed with [^3H]thymidine for another 24 hr to measure T-cell proliferation.

The target in a further experiment is T2, CD40L (Homo sapiens, UniProt P29965).
T2 construct: measures of the “on” and “off” rates of the peptides relative to soluble CD40L
T2 sequence (P29965 113-261 limits assumed): T1 sequence (P29965 113-261 limits assumed)
In words: Octet Red label-free association/dissociation analysis. In kind it is binding. As to conditions: versus CD40L M1—206. The protocol: Label-free analyses of the associations and dissociations of base peptides and serine derivatives of base peptides with the CD40L target protein were performed using the Octet Red system (ForteBio, Inc., USA) according to the manufacturer's instructions. These analyses provide kinetic constants of CD40L binding activity, especially the association rate constant (Ka) and dissociation rate constant (Kd) of binding, i.e., measures of the “on” and “off” rates of the peptides relative to soluble CD40L.
(In general: Biolayer interferometry detects binding as a change in optical thickness at a sensor tip.)

Entries after “also recorded” stand apart in the source; their conditions may differ. Where a SMILES comes first, the peptide text is derived from it. Bridges are numbered along the chain shown (N, C = ends). Roman numbers before positions name the chains, in order. Where no end group is shown, it is not given here. [ ]: non-standard residue; d: D form. AEEA = NCCOCCOCC(=O)O

CD40L-induced CD86 expression on primary B-cells, sequence (P29965 whole entry): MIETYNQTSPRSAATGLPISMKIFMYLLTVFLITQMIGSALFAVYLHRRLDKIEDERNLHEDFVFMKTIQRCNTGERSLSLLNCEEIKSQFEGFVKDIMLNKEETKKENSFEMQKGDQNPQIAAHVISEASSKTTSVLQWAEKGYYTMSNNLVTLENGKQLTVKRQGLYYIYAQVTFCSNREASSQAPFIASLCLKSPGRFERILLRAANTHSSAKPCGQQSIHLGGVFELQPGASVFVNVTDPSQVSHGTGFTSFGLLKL
CD40L-induced CD86 expression on primary B-cells, sequence (P25942 21-277 partner): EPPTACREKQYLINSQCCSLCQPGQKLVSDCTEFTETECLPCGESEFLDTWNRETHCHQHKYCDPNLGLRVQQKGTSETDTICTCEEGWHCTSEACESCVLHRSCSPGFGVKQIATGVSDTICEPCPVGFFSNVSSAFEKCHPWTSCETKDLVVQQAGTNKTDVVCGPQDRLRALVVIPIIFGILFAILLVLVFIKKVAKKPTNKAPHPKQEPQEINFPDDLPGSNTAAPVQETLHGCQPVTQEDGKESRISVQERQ

As a reminder, the EC50 is the concentration giving half of the maximal effect. Take `CC(C)C[C@H](NC(=O)[C@H](Cc1ccc(O)cc1)NC(=O)[C@H](CC(=O)O)NC(=O)[C@H](CCCNC(=N)N)NC(=O)[C@H](CCCNC(=N)N)NC(=O)[C@H](Cc1ccccc1)NC(=O)[C@H](CO)NC(=O)[C@H](CO)NC(=O)[C@H](Cc1ccc(O)cc1)NC(=O)[C@H](Cc1ccccc1)NC(=O)[C@H](CCCNC(=N)N)NC(=O)[C@H](Cc1ccccc1)NC(=O)[C@H](CC(C)C)NC(=O)[C@H](Cc1ccccc1)NC(=O)[C@H](Cc1ccccc1)NC(=O)[C@H](CC(C)C)NC(=O)[C@H](CC(N)=O)NC(=O)[C@H](Cc1ccc(O)cc1)NC(=O)[C@H](CCCNC(=N)N)NC(=O)[C@@H]1CCCN1C(=O)[C@@H]1CCCN1)C(=O)N[C@@H](Cc1ccc(O)cc1)C(=O)N[C@@H](Cc1ccccc1)C(=O)O` [CD40L M1_9s] (H-PPRYNLFFLFRFYSSFRRDYLYF-OH; N-terminus and C-terminus assumed): the EC50 (on CD40L/CD40-Fc; in experiment [1]) was 564 nM throughout. In addition, in the experiment with TNFα, the “inhibition of rTNFα-induced cytoxicity” value was “lack of inhibition; also recorded: no significant inhibition”.

For `CC[C@H](C)[C@H](NC(=O)[C@H](CO)NC(=O)[C@H](Cc1c[nH]c2ccccc12)NC(=O)[C@H](CCC(N)=O)NC(=O)[C@@H](NC(=O)[C@@H]1CCCN1C(=O)[C@H](Cc1ccccc1)NC(=O)[C@H](Cc1ccccc1)NC(=O)[C@H](Cc1c[nH]c2ccccc12)NC(=O)CNC(=O)[C@H](Cc1ccc(O)cc1)NC(=O)[C@H](CCCCN)NC(=O)[C@H](CC(C)C)NC(=O)[C@@H](NC(=O)[C@H](Cc1c[nH]cn1)NC(=O)[C@H](CO)NC(=O)[C@H](CCCNC(=N)N)NC(=O)[C@H](Cc1ccc(O)cc1)NC(=O)[C@@H]1CCCN1C(=O)[C@@H](NC(=O)[C@H](Cc1ccccc1)NC(=O)[C@@H]1CCCN1C(=O)[C@@H](N)CC(C)C)C(C)C)C(C)C)C(C)C)C(=O)N[C@@H](Cc1ccccc1)C(=O)N[C@@H](C)C(=O)N[C@H](C(=O)N[C@@H](CC(C)C)C(=O)N1CCC[C@H]1C(=O)N[C@@H](Cc1ccccc1)C(=O)N[C@@H](CCC(N)=O)C(=O)N[C@@H](Cc1ccc(O)cc1)C(=O)N[C@@H](CC(C)C)C(=O)N[C@@H](Cc1c[nH]cn1)C(=O)N[C@@H](CCCNC(=N)N)C(=O)N[C@@H](CO)C(=O)N[C@@H](CCCNC(=N)N)C(=O)O)C(C)C` [CD40L M1_18s] (H-LPFVPYRSHVLKYGWFFPVQWSIFAVLPFQYLHRSR-OH; N-terminus and C-terminus assumed), the “inhibition of rTNFα-induced cytoxicity” value is recorded as “lack of inhibition” with TNFα (listed as M1—18*S) and “no significant inhibition” with TNFα (listed as M1—18S).

Regarding `CC[C@H](C)[C@H](NC(=O)[C@H](CO)NC(=O)[C@H](Cc1ccccc1)NC(=O)[C@@H]1CCCN1C(=O)[C@@H]1CCCN1C(=O)[C@H](CO)NC(=O)[C@H](Cc1ccccc1)NC(=O)[C@H](Cc1ccccc1)NC(=O)[C@H](Cc1ccccc1)NC(=O)[C@H](CC(C)C)NC(=O)[C@H](CC(C)C)NC(=O)[C@@H](N)CC(C)C)C(=O)N[C@@H](Cc1ccccc1)C(=O)N[C@@H](CO)C(=O)N[C@@H](Cc1ccccc1)C(=O)N[C@@H](CO)C(=O)N[C@@H](CC(C)C)C(=O)N[C@H](C(=O)N[C@H](C(=O)N[C@@H](CC(C)C)C(=O)N[C@@H](CO)C(=O)O)[C@@H](C)O)[C@@H](C)O` [Peptide M7_189S] (H-LLLFFFSPPFSIFSFSLTTLS-OH), the results for the concentration giving a half-maximal response (EC50) (at CD40L/CD40-Fc; in experiment [1]) were 177 nM and 176 nM, respectively.

Take AQWWHHRFSFLGAIQFFERGAAD [CD40L M1_30rd]: the “relative performance in T-cell proliferation assay” value in experiment [2] is reported as “best-performing”.

For HPFSIKNVFSIWNFFSVY [CD40L M1_6s], the “inhibition of rTNFα-induced cytoxicity” value with TNFα is recorded as “lack of inhibition; also recorded: no significant inhibition”.

Consider “I: H-C[AEEA]LLLFFFSPPFSIFSFSLTTLS / II: H-C[AEEA]HPFSIKNVFSIWNFFSVY (disulfide I:1-II:1) [Cys_M1_6S-Cys_M1_189S heterodimer]”, for which the “inhibition of CD40L-CD40 interaction relative to monomeric peptide controls” value at CD40L/CD40-Fc was “enhanced inhibition”. Further, in experiment [1], the “inhibition of CD40L-induced CD86 expression (qualitative)” value is on record as “enhanced inhibition”.

With “I: H-C[AEEA]PPRYNLFFLFRFYSSFRRDYLYF / II: H-C[AEEA]HPFSIKNVFSIWNFFSVY (disulfide I:1-II:1) [Cys_M1_6S-Cys_M1_9S heterodimer]”, the “inhibition of CD40L-CD40 interaction relative to monomeric peptide controls” value against CD40L/CD40-Fc was “enhanced inhibition”. Besides, in experiment [1], the “inhibition of CD40L-induced CD86 expression (qualitative)” value was “enhanced inhibition”.

With “PFTWRPTIFWIIQLIVYMRHFGGGGSRSELLRENICRYVSLFDHPLQRNTPLDELRFVIFDTETSGFDLVKDRILSIR [CD40L D1_0014]”, the “fold higher affinity for CD40L than base monomeric peptide” value at CD40L was 6 fold.

For the compound SKVRMQFDIINFPVNVGFLVFSH [CD40L M1_42rd], in experiment [2], the “relative performance in T-cell proliferation assay” value is reported as “best-performing”.
